{
  "source": "patent US20180245049A1",
  "about": "“METHOD FOR INDUCING DIFFERENTIATION OF STEM CELLS” (STICHTING KATHOLIEKE UNIVERSITEIT, priority 2015, published 2018)",
  "key": {"[1]": {"test_system": "hMSCs", "assay": "Live/dead assay (calcein-AM and MTT) of gel-encapsulated cells", "assay_type": "cell-based, human", "settings": "live/dead assay after 48 h and 96 h of culture, 50 nM", "method": "Cell Culture. Human Mesenchymal Stem Cells (hMSCs) were obtained from Lonza, Inc. (Switzerland). Cells were then cultured in α-MEM medium (lnvitrogen) supplemented with 10% fetal bovine serum (FBS), 1% penicillin/streptomycin and incubated in a humidified atmosphere containing 5% (v/v) CO2 at 37° C. For the encapsulation of cells in the gels, first, the cell pellets were obtained by centrifugation. Then 500 μL of the cold polymer solution (˜10° C.) was added directly to the pellet, followed by a gentle pipetting up and down 3-4 times to ensure a homogeneous mixture that was directly put onto a cover slip in a 6-well plate (also kept cold). Thereafter, the solution was sandwiched between two cover slips and the well plate was transferred to a 37° C. incubator. The volume of the suspension was chosen (500 μL) in order to obtain hydrogel thickness in the range of 3 mm. […] To evaluate proliferation, total double-stranded DNA content was determined by using the PicoGreen assay as previously reported.\nMTT Assay. As described in literature, briefly, cell viability was determined by the 3-(4,5-dimethylthiazol-2-yl)-2,5-diphenyltetrazolium bromide (MTT) assay and the data are presented as a percentage of control viability.\nLive/Dead Staining. Cell viability was determined with the live/dead viability/cytotoxicity kit (Molecular Probes), according to the manufacturer's protocol."}, "[2]": {"test_system": "hMSCs", "assay": "Lineage commitment and differentiation of gel-encapsulated hMSCs in bipotential differentiation medium (STRO-1, Osterix, Oil-red O staining)", "assay_type": "cell-based, human", "method": "Cell Culture. Human Mesenchymal Stem Cells (hMSCs) were obtained from Lonza, Inc. (Switzerland). Cells were then cultured in α-MEM medium (lnvitrogen) supplemented with 10% fetal bovine serum (FBS), 1% penicillin/streptomycin and incubated in a humidified atmosphere containing 5% (v/v) CO2 at 37° C. For the encapsulation of cells in the gels, first, the cell pellets were obtained by centrifugation. Then 500 μL of the cold polymer solution (˜10° C.) was added directly to the pellet, followed by a gentle pipetting up and down 3-4 times to ensure a homogeneous mixture that was directly put onto a cover slip in a 6-well plate (also kept cold). Thereafter, the solution was sandwiched between two cover slips and the well plate was transferred to a 37° C. incubator. The volume of the suspension was chosen (500 μL) in order to obtain hydrogel thickness in the range of 3 mm. […] Afterwards, the gel becomes stiffer with time and attains the final stiffness in 2-3 minutes. This favors the supporting of cells in 3D rather than the cells settling at the bottom. After gel formation, the two cover slips were removed and α-MEM medium (without serum) was added. All cell culture experiments were carried out without any serum in the medium for the first 6 h of culture. Then, α-MEM medium with 10% serum was added. All cells were used at low passage numbers (≤passage 4), were subconfluently cultured and were seeded at 10^6 cells/mL for the purpose of the experiments and in order to avoid cell-cell contacts. The lineage commitment and differentiation of the gel encapsulated hMSCs after 96 h and 3 weeks of culture, respectively, were investigated with bipotential differentiation medium (1:1 v/v osteogenic and adipogenic media, Lonza). For all the experiments, a non-functionalized soft polymer gel (cell culture in growth medium) served as control. […] The pharmacological agents used were 50 μM Blebbistatin (EMD Biosciences-Calbiochem), 1 μM cytochalasin D (Sigma) and 50 nM Taxol (Abcam). The hMSCs were exposed to each pharmacological agent for 1 h, 24 h and 72 h, respectively, after seeding on a modified polymer. For antibody inhibition studies, cells were preincubated with 5 ng/mL anti-α1, 2, 3 and 5-β1, 2 (all from Santa Cruz Biotechnology). For competition experiments with soluble RGD peptides, the cells were incubated in 1 mL of cell culture media containing 200 μg of RGDS peptides during 20 min on plastic and then transferred to the polymer gels. To evaluate proliferation, total double-stranded DNA content was determined by using the PicoGreen assay as previously reported.\nImmunostaining. […]"}},
  "data": [
    {"smiles": "CC(=O)O[C@H]1C(=O)[C@@]2(C)[C@H]([C@H](OC(=O)c3ccccc3)[C@]3(O)C[C@H](OC(=O)[C@H](O)[C@@H](NC(=O)c4ccccc4)c4ccccc4)C(C)=C1C3(C)C)[C@]1(OC(C)=O)CO[C@@H]1C[C@@H]2O", "note": "[Taxol]", "values": [
      {"measurement": "cell viability after Taxol treatment", "setting": "[1]", "result": "did not affect cell viability"},
      {"measurement": "hMSCs commitment after Taxol treatment", "setting": "[2]; 50 nM", "result": "decrease in hMSCs commitment"}
    ]},
    {"smiles": "Cc1ccc2c(c1)C(=O)C1(O)CCN(c3ccccc3)C1=N2", "note": "(centres unmarked) [blebbistatin]", "values": [
      {"measurement": "STRO-1 in encapsulated cells in presence of blebbistatin", "setting": "[2]; 50 μM, all the polymer gels", "result": "high levels of STRO-1"},
      {"measurement": "hMSCs commitment in presence of blebbistatin", "setting": "[2]; 50 μM, all the polymer gels", "result": "inhibited the hMSCs commitment"}
    ]},
    {"smiles": "C=C1[C@@H](C)[C@H]2[C@H](Cc3ccccc3)NC(=O)[C@]23[C@H](OC(C)=O)/C=C/[C@@](C)(O)C(=O)[C@@H](C)C/C=C/[C@H]3[C@@H]1O", "note": "[cytochalasin-D]", "values": [
      {"measurement": "hMSCs commitment after cytochalasin-D treatment", "setting": "[2]; 1 μM, towards both osteogenesis and adipogenesis", "result": "overall decreased commitment"}
    ]}
  ]
}
